Results on one compound are retold here after patent publication US20230241256A1, “NON-INTUITIVE COMBINATION OF DRUG DELIVERY CARRIERS OF THE SAME DRUG FOR SYNERGISTIC GROWTH DELAY OF SOLID TUMORS” (The Johns Hopkins University, priority 2020, published 2023).

In test [1] the test system is Trastuzumab-sensitive BT474 breast cancer cells. The test is described as follows: Clonogenic (colony) survival, BT474. Type of test: cell-based, human. Conditions: 6 hour incubation at 37° C.; pH 7.4 or 6.0; monolayers. Here is the method:
(§1) Cold conditions of liposomes and the antibody are indicated at zero radioactivity concentration. Error bars correspond to standard deviations of repeated measurements (4-6 samples per radioactivity concentration);
(§2) After incubation for 6 hours of cell monolayers with varying concentrations of radioactivity, the cells were washed and were plated in dishes to grow until formation of colonies, as described in detail in Prasad et al., 2021.

Test [2] has as its system Trastuzumab-resistant BT474-R breast cancer cells. The test is described as follows: Clonogenic (colony) survival, BT474-R. Type of test: cell-based, human. The following applies: 6 hour incubation at 37° C.; pH 7.4 or 6.0; monolayers. Here is the method:
as §1, §2

As for `O=C([O-])CN1CCN(CC(=O)[O-])CCN(CC(=O)[O-])CCN(CC(=O)[O-])CC1.[225Ac+3]` [free [^225Ac]Ac-DOTA], the colony survival response result in test [1] and in test [2] was “same sensitivity” each time.
